Literature values as cited in US20130108552A1, “NEAR-IR INDOCYANINE GREEN DOPED MULTIMODAL SILICA NANOPARTICLES AND METHODS FOR MAKING THE SAME” (UNIVERSITY OF FLORIDA RESEARCH FOUNDATION INC., priority 2010, published 2013).

What was measured:
[1] = test system: nonspecific plasma proteins
[2] = in H2O

CC1(C)C(/C=C/C=C/C=C/C=C2\N(CCCCS(=O)(=O)O)c3ccc4ccccc4c3C2(C)C)=[N+](CCCCS(=O)(=O)[O-])c2ccc3ccccc3c21 [ICG, indocyanine green]
binding to nonspecific plasma proteins [1]: strongly bind to nonspecific plasma proteins
critical micelle concentration [2]: about 0.32 mg/mL
